Data as given in patent publication US11173156B2, “Solid forms of a kynurenine-3-monooxygenase inhibitor” (CHDI Foundation, Inc., priority 2019, dated 2021).
“Also recorded” adds a separate entry of the source.

Tests used:
Type in all cases: physicochemical
[1] = Stability at elevated temperatures (XRPD, HPLC); settings: for HPLC: after storage at 60 ° C. (time point not given)
Description: The stability of Compound I sodium Patterns A, C, and D and Form B, at about 60° C. was evaluated. These forms were weighed into vials covered with a Kimwipe tissue and stored in an oven at 60° C. and ambient pressure. After three days and ten days of exposure, the solids were analyzed by XRPD to check for form conversion. […].

[2] = Water activity interconversion slurries; settings: for water activity at which the form is stable / favored: competitive water activity slurries
From the text: The resulting solid phase was characterized by XRPD (Table 16). The experiments establish the physically stable form at various aw.
Water activity is related to relative humidity in that RH %=aw×100. Therefore, it is possible to directly relate the stability of an anhydrous/hydrate system in slurry experiments to solid state stability. Slurry technique at controlled water activities provides an accurate method of rapidly predicting the physically stable form in anhydrous/hydrate systems. This method is particularly valuable when relatively slow kinetics of conversion in the solid state prevents reaching true equilibrium in a reasonable timeframe, since solvent-mediated transformation accelerates the conversion process.

[3] = Dynamic vapor sorption/desorption (DVS)
Description: Moisture sorption/desorption data were collected on a VTI SGA-100 Vapor Sorption Analyzer. NaCl and PVP were used as calibration standards. Samples were not dried prior to analysis. Sorption and desorption data were collected over a range from 5% to 95% RH at 10% RH increments under a nitrogen purge. The equilibrium criterion used for analysis was less than 0.0100% weight change in 5 minutes with a maximum equilibration time of 3 hours. Data were not corrected for the initial moisture content of the samples.

[4] = Approximate aqueous solubility of salts/co-crystals (visual, solvent addition method); settings: water
Description: (§1) A weighed sample was treated with aliquots of the test solvent at room temperature. The mixture was sonicated between additions to facilitate dissolution. Complete dissolution of the test material was determined by visual inspection. Solubility was estimated based on the total solvent used to provide complete dissolution. Some samples were then heated and observed visually for complete dissolution. The actual solubility may be greater than the value calculated because of the use of solvent aliquots that were too large or due to a slow rate of dissolution. […] If complete dissolution was achieved as a result of only one aliquot addition, the solubility is expressed as “greater than.”

[5] = Slurry experiments (form stability); settings: for relative stability of the form (in words): at the conditions evaluated
Description: Solutions were prepared by adding enough solids to a given solvent so that excess solids were present. The mixture was then agitated in a sealed vial at either ambient or an elevated temperature. After a given amount of time, the solids were isolated for analysis.
The formation and stability of solid forms of the sodium salt of Compound I was further evaluated via slurry experiments. The slurries were formed by combining Compound I sodium Pattern A and a solvent, and allowing the slurry to equilibrate at room temperature. If a free flowing slurry was not achieved, an additional amount of the respective solvent was added before the room temperature equilibration step. All slurries were isolated via centrifuge filtration after five days and twelve days of equilibration. The solids were analyzed by XRPD to check for pattern conversion (Table 13).

[6] = Deliquescence of salts/co-crystals during exposure to 75% RH; settings: ambient temperature, 3 day exposure
Description: The salts identified from the salt/co-crystal screen of Compound I (see section 4 above) were assessed visually for deliquescence during exposure to 75% RH at ambient temperature (Table 5). […] The materials from these experiments were recovered and re-analyzed by XRPD to determine if changes in solid form occurred.

[7] = Solubility of Compound I sodium salt forms in solvents and binary solvent systems
Description: as §1

[8] = XRPD analysis of remaining solids from aqueous solubility assessments; settings: solids recovered from mother liquor of aqueous solubility assessment
From the text: Compound I ethylenediamine A+B disproportionated, as peaks similar to those observed for Compound I free acid Material C were observed.

[9] = Competitive slurry experiments
Description: Competitive slurry experiments were also conducted to evaluate form stability of the solid forms of the sodium salt of Compound I. Slurries were prepared by combining Compound I sodium Pattern A, Form B, Pattern C and Pattern D with a solvent, allowing the slurry to equilibrate with stirring at room temperature. The slurries were analyzed at three day and ten day time points, filtered, and analyzed by XRPD (Table 14).

[10] = Stability at elevated temperatures (XRPD, HPLC)
[11] = Physical stability on drying, ambient exposure or heating
[12] = Approximate aqueous solubility of salts/co-crystals (visual, solvent addition method); settings: water, thermodynamic from solid, free acid solids retained from filtered aqueous phase, portion rinsed with water, read-out: solubility observed

O=C(O)c1cc(-c2ccc(OC3CC3)c(Cl)c2)ncn1 [Compound I sodium Form B, 6-(3-chloro-4-cyclopropoxyphenyl)pyrimidine-4-carboxylic acid]
chemical and physical form changes after storing at elevated temperatures ([1]; about 60° C. and about 78° C.): No chemical and physical form changes were observed
HPLC [1]: >99.9 % AUC
Results (XRPD form) ([2]; 0.33 aw, 16:84 H2O/DMF, 6 days): Form B
Results (XRPD form) ([2]; 0.39 aw, 15:85 H2O/MeOH, 6 days): Form B
Results (XRPD form) ([2]; 0.50 aw, 30:70 H2O/DMF, 6 days): Form B
Results (XRPD form) ([2]; 0.58 aw, 6:94 H2O/Acetone, 6 days): Form B
Results (XRPD form) ([2]; 0.70 aw, 50:50 H2O/DMF, 6 days): Form B
Results (XRPD form) ([2]; 0.86 aw, 70:30 H2O/MeOH, 6 days): Form B
Results (XRPD form) ([2]; 0.91 aw, 50:50 H2O/Acetone, 1 day): Form E
Results (XRPD form) ([2]; 0.98 aw, 90:10 H2O/Acetone, 6 days): Form E
water activity at which the form is stable / favored [2]: ≤ 0.86 aw
hygroscopicity by DVS analysis (in words) [3]: hygroscopic
DVS weight loss upon equilibration at about 5% RH ([3]; about 5% RH): about 0.03%
material recovered from the DVS analysis compared with starting material by XRPD ([3]; after DVS): substantially the same as the starting material
DVS weight gain ([3]; from about 5 to about 95% RH): ~5.39%
DVS weight loss ([3]; from about 95% to about 5% RH): ~5.14%
gain observed by DVS analysis ([3]; sorption cycle): ~5 wt %
aqueous solubility (in words) [4]: desirable aqueous solubility; also recorded: good aqueous solubility
solubility ([4]; estimated visually, solvent addition method): 4000 µg/mL
stability in slurry (in words) ([5]; IPA and acetone): stable for about at least seven days
relative stability of the form (in words) [5]: predominant and most thermodynamically stable form; also recorded: most thermodynamically stable anhydrate form
Result (XRPD after exposure) ([6]; listed as Sodium B): Sodium B
Observation (deliquescence) ([6]; visual): no deliquescence
solubility ([7]; Methanol, ambient): 6 mg/mL loading
solubility ([7]; Water, ambient): 2 mg/mL loading
solubility ([7]; organic solvent or mixture, thermodynamic from solid, Acetone, 55° C., read-out: Solubility): < 2000 µg/mL
solubility ([7]; organic solvent or mixture, thermodynamic from solid, Acetone, ambient, read-out: Solubility): < 2000 µg/mL
solubility ([7]; organic solvent or mixture, thermodynamic from solid, Acetone/water, 94:6 v/v, 55° C., read-out: Solubility): < 2000 µg/mL
solubility ([7]; organic solvent or mixture, thermodynamic from solid, Acetone/water, 94:6 v/v, ambient, read-out: Solubility): < 2000 µg/mL
solubility ([7]; organic solvent or mixture, thermodynamic from solid, Acetonitrile, 55° C., read-out: Solubility): < 2000 µg/mL
solubility ([7]; organic solvent or mixture, thermodynamic from solid, Acetonitrile, ambient, read-out: Solubility): < 2000 µg/mL
solubility ([7]; organic solvent or mixture, thermodynamic from solid, Acetonitrile/water, 83:17 v/v, ambient, read-out: Solubility): 2000 µg/mL
solubility ([7]; organic solvent or mixture, thermodynamic from solid, Ethanol, 55° C., read-out: Solubility): < 2000 µg/mL
solubility ([7]; organic solvent or mixture, thermodynamic from solid, Ethanol, ambient, read-out: Solubility): < 2000 µg/mL
solubility ([7]; organic solvent or mixture, thermodynamic from solid, Ethanol/water, 88:12 v/v, 55° C., read-out: Solubility): ~2000 µg/mL
solubility ([7]; organic solvent or mixture, thermodynamic from solid, Ethanol/water, 88:12 v/v, ambient, read-out: Solubility): ~2000 µg/mL
solubility ([7]; organic solvent or mixture, thermodynamic from solid, Isopropanol, 55° C., read-out: Solubility): < 2000 µg/mL
solubility ([7]; organic solvent or mixture, thermodynamic from solid, Isopropanol, ambient, read-out: Solubility): < 2000 µg/mL
solubility ([7]; organic solvent or mixture, thermodynamic from solid, Isopropanol/water, 91:9 v/v, 55° C., read-out: Solubility): < 2000 µg/mL
solubility ([7]; organic solvent or mixture, thermodynamic from solid, Isopropanol/water, 91:9 v/v, ambient, read-out: Solubility): < 2000 µg/mL
solubility ([7]; thermodynamic from solid, Water, ambient, read-out: Solubility): ≥ 6000 µg/mL
Result (XRPD of remaining solids) [8]: remained unchanged by XRPD
Result (XRPD of remaining solids) ([8]; listed as Sodium B): Sodium B

O=C(O)c1cc(-c2ccc(OC3CC3)c(Cl)c2)ncn1 [Compound I sodium Form E, 6-(3-chloro-4-cyclopropoxyphenyl)pyrimidine-4-carboxylic acid]
water activity at which the form is stable / favored [2]: ≥ 0.91 aw
form conversion in competitive slurry ([9]; acetone and water): converted to Compound I sodium Form B
Results (XRPD form) ([10]; 65° C., after 20 min and after 50 min): Form B
Results (XRPD form) ([10]; 78° C., 18 days): Form B
Results (XRPD form) ([10]; 205° C., briefly): Form B + peaks
Results (XRPD form) ([10]; under N2: heat to 175° C. then cooled to 150° C., held for 10 minutes): Form B + peaks

O=C(O)c1cc(-c2ccc(OC3CC3)c(Cl)c2)ncn1 [Compound I sodium Pattern D, 6-(3-chloro-4-cyclopropoxyphenyl)pyrimidine-4-carboxylic acid]
chemical and physical form changes after storing at elevated temperature ([1]; about 60° C.): No chemical and physical form changes were observed
HPLC [1]: >99.9 % AUC
form conversion in slurry / trituration ([5]; acetone and/or isopropanol (trituration, single form or competitive slurry)): converted to Compound I sodium Form B
relative stability of the form (in words) [5]: not stable
form conversion in competitive slurry ([9]; water): Compound I sodium Form B

O=C(O)c1cc(-c2ccc(OC3CC3)c(Cl)c2)ncn1 [Compound I sodium Pattern F, 6-(3-chloro-4-cyclopropoxyphenyl)pyrimidine-4-carboxylic acid]
effect of exposure to ambient ([11]; ambient for about 1 day): become disordered

O=C(O)c1cc(-c2ccc(OC3CC3)c(Cl)c2)ncn1 [Compound I sodium amorphous, 6-(3-chloro-4-cyclopropoxyphenyl)pyrimidine-4-carboxylic acid]
form conversion on heating ([11]; heated to about 150° C.): converts to Compound I sodium Form B

O=C(O)c1cc(-c2ccc(OC3CC3)c(Cl)c2)ncn1 [Compound I, 6-(3-chloro-4-cyclopropoxyphenyl)pyrimidine-4-carboxylic acid]
solubility [12]: < 4000 µg/mL
